According to the CheMixHub viscosity set:

Assay: xn = mol fraction of the nth substance listed

CC1CCCCC1 + CCCO
303.15 K, 101.33 kPa
Settings | viscosity [mPa·s]
x1 = 0.0998 | 1.42
x1 = 0.2182 | 1.188
x1 = 0.4212 | 0.918
x1 = 0.576 | 0.777
x1 = 0.7398 | 0.677
x1 = 0.9 | 0.637

CCCNCCC + CCCO
viscosity [mPa·s], 101.33 kPa
Settings | x1 = 0.1059 | x1 = 0.2109 | x1 = 0.3116 | x1 = 0.401 | x1 = 0.513 | x1 = 0.5913 | x1 = 0.7036 | x1 = 0.8073 | x1 = 0.885
303.15 K | 1.601 | 1.425 | 1.268 | 1.138 | 0.994 | 0.8936 | 0.7675 | 0.6649 | 0.5972
313.15 K | 1.261 | 1.126 | 1.009 | 0.8968 | 0.7829 | 0.7121 | 0.6195 | 0.5442 | 0.4899

CCOC(=O)c1ccccc1 + CCCO
viscosity [mPa·s], 101.3 kPa
Settings | x1 = 0.0548 | x1 = 0.1155 | x1 = 0.1829 | x1 = 0.2582 | x1 = 0.3431 | x1 = 0.4393 | x1 = 0.5493 | x1 = 0.6763 | x1 = 0.8246
303 K | 1.619 | 1.637 | 1.645 | 1.657 | – | 1.688 | 1.703 | 1.72 | 1.734
308 K | 1.471 | 1.486 | 1.499 | 1.51 | 1.525 | 1.537 | 1.552 | 1.568 | 1.579
313 K | 1.326 | 1.337 | 1.351 | 1.364 | 1.372 | 1.386 | 1.403 | 1.414 | 1.432
318 K | 1.235 | 1.247 | 1.257 | 1.272 | 1.28 | 1.291 | 1.302 | 1.314 | 1.327
323 K | 1.175 | 1.188 | 1.194 | 1.205 | 1.21 | 1.219 | 1.227 | 1.235 | 1.244

O=C(O)c1cccc([N+](=O)[O-])c1 + CCCO
viscosity [mPa·s], 101 kPa
Settings | x1 = 0.219 | x1 = 0.22 | x1 = 0.244 | x1 = 0.261 | x1 = 0.2797 | x1 = 0.2805
318.15 K | 3.007 | 3.007 | 3.286 | 3.62 | 3.951 | 3.95
323.15 K | 2.632 | – | – | – | – | 3.456

CCCNCCC + CCCOCCO
viscosity [mPa·s], 101.33 kPa
Settings | 298.15 K | 308.15 K | 318.15 K
x2 = 0.0247 | 0.53 | 0.463 | 0.401
x2 = 0.075 | 0.592 | 0.511 | 0.435
x2 = 0.125 | 0.657 | 0.564 | 0.473
x2 = 0.1902 | 0.753 | 0.636 | 0.529
x2 = 0.2692 | 0.889 | 0.737 | 0.602
x2 = 0.3692 | 1.09 | 0.883 | 0.709
x2 = 0.4334 | 1.228 | 0.985 | 0.782
x2 = 0.476 | 1.329 | 1.058 | 0.833
x2 = 0.5289 | 1.463 | 1.153 | 0.903
x2 = 0.623 | 1.686 | 1.318 | 1.021
x2 = 0.723 | 1.94 | 1.507 | 1.157
x2 = 0.8063 | 2.136 | 1.656 | 1.269
x2 = 0.9114 | 2.293 | 1.78 | 1.362
x2 = 0.9598 | 2.322 | 1.846 | 1.413
x2 = 0.9731 | 2.333 | 1.863 | 1.428

CC(C)O + CCO
101 kPa
Settings | viscosity [mPa·s]
298.15 K, x2 = 0.214 | 1.796
298.15 K, x2 = 0.393 | 1.607
298.15 K, x2 = 0.565 | 1.445
298.15 K, x2 = 0.725 | 1.299
298.15 K, x2 = 0.869 | 1.182
308.15 K, x2 = 0.5 | 1.186
313.15 K, x2 = 0.5 | 1.066
318.15 K, x2 = 0.5 | 0.9542

CCCNCCC + CCO
viscosity [mPa·s], 101.33 kPa
Settings | x1 = 0.0942 | x1 = 0.1946 | x1 = 0.3116 | x1 = 0.4115 | x1 = 0.5186 | x1 = 0.6176 | x1 = 0.7061 | x1 = 0.8005 | x1 = 0.9058
303.15 K | 1.05 | 1.048 | 0.9952 | 0.9229 | 0.8291 | 0.7485 | 0.6803 | 0.6208 | 0.56
313.15 K | 0.8212 | 0.7926 | 0.7448 | 0.6985 | 0.6485 | 0.5986 | 0.5562 | 0.51 | 0.4624

CNS(C)(=O)=O + CCO
303.15 K, 101.33 kPa
Settings | viscosity [mPa·s]
x1 = 0.1006 | 1.105
x1 = 0.201 | 1.3
x1 = 0.2995 | 1.58
x1 = 0.3949 | 1.871
x1 = 0.4923 | 2.303
x1 = 0.5949 | 2.888
x1 = 0.6892 | 3.612
x1 = 0.7757 | 4.493
x1 = 0.8905 | 6.09

COc1ccc(/C=C/C(=O)c2ccccc2)cc1 + CCO
viscosity [mPa·s], 101 kPa
Settings | x1 = 0.000144 | x1 = 0.000288 | x1 = 0.0005755 | x1 = 0.00115 | x1 = 0.002298 | x1 = 0.004586
298.15 K | 1.12 | 1.173 | 1.263 | 1.34 | 1.364 | 1.439
303.15 K | 1.019 | 1.072 | 1.162 | 1.239 | 1.263 | 1.338
308.15 K | 0.9181 | 0.971 | 1.061 | 1.138 | 1.162 | 1.237

O=C(C=Cc1ccccc1)c1ccccc1 + CCO
viscosity [mPa·s], 101 kPa
Settings | x1 = 0.000144 | x1 = 0.000288 | x1 = 0.0005755 | x1 = 0.00115 | x1 = 0.002298 | x1 = 0.004586
298.15 K | 1.102 | 1.141 | 1.216 | 1.256 | 1.283 | 1.356
303.15 K | 1.01 | 1.049 | 1.115 | 1.156 | 1.181 | 1.255
308.15 K | 0.9181 | 0.9561 | 1.014 | 1.056 | 1.079 | 1.154

CCOC(=O)c1ccccc1 + CCOC(C)=O
298.15 K, 101 kPa
Settings | viscosity [mPa·s]
x2 = 0.1216 | 1.704
x2 = 0.2088 | 1.514
x2 = 0.3131 | 1.292
x2 = 0.3973 | 1.157
x2 = 0.5044 | 0.9851
x2 = 0.5998 | 0.8478
x2 = 0.6989 | 0.7247
x2 = 0.7997 | 0.6178
x2 = 0.8992 | 0.5188

CCn1cc[n+](C)c1.N#C[S-] + CCOS(=O)(=O)[O-].CC[n+]1ccn(C)c1
100 kPa
Settings | viscosity [mPa·s]
298.15 K, x2 = 0.0495 | 24.95
323.15 K, x2 = 0.571 | 25.65

Cc1ccccc1[N+](=O)[O-] + CN1CCC[C@H]1c1cccnc1
viscosity [mPa·s], 101.33 kPa
Settings | x2 = 0.1058 | x2 = 0.2027 | x2 = 0.2928 | x2 = 0.4027 | x2 = 0.4939 | x2 = 0.5968 | x2 = 0.6894 | x2 = 0.7864 | x2 = 0.8909
298.15 K | 2.229 | 2.424 | 2.583 | 2.775 | 3.008 | 3.117 | 3.335 | 3.47 | 3.697
323.15 K | 1.405 | 1.481 | 1.557 | 1.625 | 1.7 | 1.764 | 1.909 | 1.919 | 2.002

N#CCc1ccccc1 + CNC(C)=O
308.15 K, 101.33 kPa
Settings | viscosity [mPa·s]
x2 = 0.0446 | 1.599
x2 = 0.2775 | 1.791
x2 = 0.3928 | 1.896
x2 = 0.5001 | 2.049
x2 = 0.6015 | 2.252
x2 = 0.6941 | 2.456
x2 = 0.7795 | 2.662
x2 = 0.8542 | 2.87
x2 = 0.9375 | 3.109

CC(C)O + CO
298.15 K, 101.33 kPa
Settings | viscosity [mPa·s]
x2 = 0.0893 | 1.891
x2 = 0.225 | 1.625
x2 = 0.2835 | 1.518
x2 = 0.3984 | 1.332
x2 = 0.5178 | 1.16
x2 = 0.6024 | 1.051
x2 = 0.6852 | 0.945
x2 = 0.8272 | 0.772
x2 = 0.9058 | 0.675

Cc1ccccc1[N+](=O)[O-] + CO
298.15 K, 101 kPa
Settings | viscosity [mPa·s]
x1 = 0.0021 | 0.5422
x1 = 0.0086 | 0.55
x1 = 0.0163 | 0.5579
x1 = 0.0287 | 0.5756
x1 = 0.0599 | 0.621
x1 = 0.0842 | 0.6536
x1 = 0.148 | 0.7466
x1 = 0.1606 | 0.7653
x1 = 0.2493 | 0.894
x1 = 0.2659 | 0.919
x1 = 0.3726 | 1.075
x1 = 0.4073 | 1.119
x1 = 0.4479 | 1.172
x1 = 0.5681 | 1.334
x1 = 0.6575 | 1.457
x1 = 0.7936 | 1.656
x1 = 0.8543 | 1.76
x1 = 0.9606 | 1.982

O=C(O)c1cccc([N+](=O)[O-])c1 + CO
viscosity [mPa·s], 101 kPa
Settings | x1 = 0.0362 | x1 = 0.0466 | x1 = 0.0506 | x1 = 0.0604 | x1 = 0.09126 | x1 = 0.1046
308.15 K | 0.8055 | 0.9203 | 0.9556 | – | 1.889 | 2.773
313.15 K | – | – | – | – | 1.727 | 2.425
318.15 K | – | – | – | – | 1.573 | 2.262
323.15 K | 0.646 | 0.7331 | 0.7603 | 0.8441 | 1.421 | 2.026

CCOC(C)(C)C + COCCO
viscosity [mPa·s], 101 kPa
Settings | 293.15 K | 298.15 K | 303.15 K
x1 = 0.0501 | 1.598 | 1.452 | 1.327
x1 = 0.1 | 1.493 | 1.361 | 1.246
x1 = 0.1508 | 1.386 | 1.267 | 1.164
x1 = 0.2 | 1.291 | 1.183 | 1.089
x1 = 0.2512 | 1.198 | 1.1 | 1.015
x1 = 0.299 | 1.118 | 1.029 | 0.951
x1 = 0.3489 | 1.041 | 0.961 | 0.89
x1 = 0.4 | 0.971 | 0.898 | 0.834
x1 = 0.4503 | 0.909 | 0.842 | 0.784
x1 = 0.499 | 0.854 | 0.793 | 0.74
x1 = 0.55 | 0.803 | 0.748 | 0.7
x1 = 0.61 | 0.75 | 0.7 | 0.657
x1 = 0.6599 | 0.711 | 0.665 | 0.625
x1 = 0.7 | 0.682 | 0.639 | 0.602
x1 = 0.7511 | 0.649 | 0.61 | 0.575
x1 = 0.8 | 0.621 | 0.584 | 0.552
x1 = 0.8489 | 0.595 | 0.561 | 0.532
x1 = 0.9 | 0.571 | 0.54 | 0.512
x1 = 0.949 | 0.55 | 0.521 | 0.495
